According to doi:10.1101/2021.04.08.439011v1 (biorxiv, 2021):

Columns and labels:
ABL1(E255K) = ABL1(E255K) (Homo sapiens, UniProt P00519, E255K); conditions: phosphorylated; 0.1 µM; binder
ASK2 = ASK2 (Homo sapiens, UniProt O95382); conditions: 0.1 µM; binder
BLK = BLK (Homo sapiens, UniProt P51451); conditions: 0.1 µM; binder
BMPR2 = BMPR2 (Homo sapiens, UniProt Q13873); conditions: 0.1 µM; binder
CAMK2A = CAMK2A (Homo sapiens, UniProt Q9UQM7); conditions: 0.1 µM; binder
CAMK2G = CAMK2G (Homo sapiens, UniProt Q13555); conditions: 0.1 µM; binder
CDK3 = CDK3 (Homo sapiens, UniProt Q00526); conditions: 0.1 µM; binder
CDK8 = CDK8 (Homo sapiens, UniProt P49336); conditions: 0.1 µM; binder
EPHA3 = EPHA3 (Homo sapiens, UniProt P29320); conditions: 0.1 µM; binder
EPHA8 = EPHA8 (Homo sapiens, UniProt P29322); conditions: 0.1 µM; binder
FGFR2 = FGFR2 (Homo sapiens, UniProt P21802); conditions: 0.1 µM; binder
FGFR3(G697C) = FGFR3(G697C) (Homo sapiens, UniProt P22607, G697C); conditions: 0.1 µM; binder
HUNK = HUNK (Homo sapiens, UniProt P57058); conditions: 0.1 µM; binder
IKK-alpha = IKK-alpha (Homo sapiens, UniProt O15111); conditions: 0.1 µM; binder
LKB1 = LKB1 (Homo sapiens, UniProt Q15831); conditions: 0.1 µM; binder
MAK = MAK (Homo sapiens, UniProt P20794); conditions: 0.1 µM; binder
MET = MET (Homo sapiens, UniProt P08581); conditions: 0.1 µM; binder
MST4 = MST4 (Homo sapiens, UniProt Q9P289); conditions: 0.1 µM; binder
MYO3B = MYO3B (Homo sapiens, UniProt Q8WXR4); conditions: 0.1 µM; binder
NEK10 = NEK10 (Homo sapiens, UniProt Q6ZWH5); conditions: 0.1 µM; binder
PFTK1 = PFTK1 (Homo sapiens, UniProt O94921); conditions: 0.1 µM; binder
PKMYT1 = PKMYT1 (Homo sapiens, UniProt Q99640); conditions: 0.1 µM; binder
PLK3 = PLK3 (Homo sapiens, UniProt Q9H4B4); conditions: 0.1 µM; binder
PLK4 = PLK4 (Homo sapiens, UniProt O00444); conditions: 0.1 µM; binder
PRKCE = PRKCE (Homo sapiens, UniProt Q02156); conditions: 0.1 µM; binder
PRKG2 = PRKG2 (Homo sapiens, UniProt Q13237); conditions: 0.1 µM; binder
SgK110 = SgK110 (Homo sapiens, UniProt P0C264); conditions: 0.1 µM; binder
TEC = TEC (Homo sapiens, UniProt P42680); conditions: 0.1 µM; binder
TGFBR2 = TGFBR2 (Homo sapiens, UniProt P37173); conditions: 0.1 µM; binder
TNIK = TNIK (Homo sapiens, UniProt Q9UKE5); conditions: 0.1 µM; binder
ZAK = ZAK (Homo sapiens, UniProt Q9NYL2); conditions: 0.1 µM; binder
Sequence of ZAK (Q9NYL2 whole entry): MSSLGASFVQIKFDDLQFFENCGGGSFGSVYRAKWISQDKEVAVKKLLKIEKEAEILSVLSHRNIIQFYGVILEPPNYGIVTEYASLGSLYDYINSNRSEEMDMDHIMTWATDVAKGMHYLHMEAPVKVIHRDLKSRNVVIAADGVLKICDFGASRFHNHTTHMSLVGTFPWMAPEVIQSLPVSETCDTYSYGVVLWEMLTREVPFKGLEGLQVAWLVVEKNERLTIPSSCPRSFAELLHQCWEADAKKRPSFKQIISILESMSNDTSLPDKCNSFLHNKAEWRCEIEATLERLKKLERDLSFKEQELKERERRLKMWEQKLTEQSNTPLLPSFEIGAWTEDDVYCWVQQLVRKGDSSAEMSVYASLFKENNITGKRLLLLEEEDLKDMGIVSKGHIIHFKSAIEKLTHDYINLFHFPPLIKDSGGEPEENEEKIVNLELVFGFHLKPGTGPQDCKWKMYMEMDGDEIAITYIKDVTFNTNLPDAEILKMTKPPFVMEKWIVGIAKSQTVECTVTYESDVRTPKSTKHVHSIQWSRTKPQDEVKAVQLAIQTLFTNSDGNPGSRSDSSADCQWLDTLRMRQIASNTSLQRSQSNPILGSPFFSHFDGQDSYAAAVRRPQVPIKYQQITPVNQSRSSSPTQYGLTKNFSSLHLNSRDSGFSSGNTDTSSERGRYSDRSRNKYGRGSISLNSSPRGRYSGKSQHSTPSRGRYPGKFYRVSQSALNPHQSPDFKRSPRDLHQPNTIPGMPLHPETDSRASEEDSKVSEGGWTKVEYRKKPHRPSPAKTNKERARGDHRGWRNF

Sequence of CAMK2A (Q9UQM7 whole entry): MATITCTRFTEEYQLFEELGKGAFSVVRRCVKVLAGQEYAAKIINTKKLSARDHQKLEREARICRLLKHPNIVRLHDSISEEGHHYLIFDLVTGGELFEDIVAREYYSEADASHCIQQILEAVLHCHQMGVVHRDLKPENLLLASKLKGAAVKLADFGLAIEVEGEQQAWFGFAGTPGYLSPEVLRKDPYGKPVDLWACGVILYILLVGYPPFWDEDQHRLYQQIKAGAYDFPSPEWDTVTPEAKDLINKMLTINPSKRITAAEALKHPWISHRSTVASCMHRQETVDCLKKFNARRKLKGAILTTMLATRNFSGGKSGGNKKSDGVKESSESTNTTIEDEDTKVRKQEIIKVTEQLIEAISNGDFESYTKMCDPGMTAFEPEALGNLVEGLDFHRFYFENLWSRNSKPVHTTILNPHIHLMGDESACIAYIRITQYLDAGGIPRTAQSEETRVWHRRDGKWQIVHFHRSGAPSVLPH
Sequence of FGFR3(G697C) (P22607 whole entry G697C): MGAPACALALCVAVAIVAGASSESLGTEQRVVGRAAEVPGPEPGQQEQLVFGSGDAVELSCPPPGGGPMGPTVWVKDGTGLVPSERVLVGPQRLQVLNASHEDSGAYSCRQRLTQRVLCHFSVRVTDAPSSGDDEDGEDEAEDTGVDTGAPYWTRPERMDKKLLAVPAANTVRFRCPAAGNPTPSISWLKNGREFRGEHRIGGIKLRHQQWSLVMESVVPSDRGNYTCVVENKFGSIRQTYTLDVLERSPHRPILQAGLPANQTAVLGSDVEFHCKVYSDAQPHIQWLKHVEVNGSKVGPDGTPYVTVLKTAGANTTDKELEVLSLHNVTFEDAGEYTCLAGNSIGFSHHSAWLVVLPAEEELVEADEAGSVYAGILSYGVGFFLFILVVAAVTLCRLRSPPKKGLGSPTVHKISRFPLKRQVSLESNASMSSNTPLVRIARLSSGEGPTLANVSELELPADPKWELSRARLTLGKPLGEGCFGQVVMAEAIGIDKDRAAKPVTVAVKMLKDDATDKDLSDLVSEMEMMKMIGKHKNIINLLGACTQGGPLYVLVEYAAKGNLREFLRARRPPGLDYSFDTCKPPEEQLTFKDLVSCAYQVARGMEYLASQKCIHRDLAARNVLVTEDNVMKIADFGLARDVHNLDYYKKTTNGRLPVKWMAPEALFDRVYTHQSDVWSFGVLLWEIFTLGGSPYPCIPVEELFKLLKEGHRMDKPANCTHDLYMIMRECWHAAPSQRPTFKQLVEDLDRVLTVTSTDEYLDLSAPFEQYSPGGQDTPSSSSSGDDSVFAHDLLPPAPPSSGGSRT
Sequence of TEC (P42680 whole entry): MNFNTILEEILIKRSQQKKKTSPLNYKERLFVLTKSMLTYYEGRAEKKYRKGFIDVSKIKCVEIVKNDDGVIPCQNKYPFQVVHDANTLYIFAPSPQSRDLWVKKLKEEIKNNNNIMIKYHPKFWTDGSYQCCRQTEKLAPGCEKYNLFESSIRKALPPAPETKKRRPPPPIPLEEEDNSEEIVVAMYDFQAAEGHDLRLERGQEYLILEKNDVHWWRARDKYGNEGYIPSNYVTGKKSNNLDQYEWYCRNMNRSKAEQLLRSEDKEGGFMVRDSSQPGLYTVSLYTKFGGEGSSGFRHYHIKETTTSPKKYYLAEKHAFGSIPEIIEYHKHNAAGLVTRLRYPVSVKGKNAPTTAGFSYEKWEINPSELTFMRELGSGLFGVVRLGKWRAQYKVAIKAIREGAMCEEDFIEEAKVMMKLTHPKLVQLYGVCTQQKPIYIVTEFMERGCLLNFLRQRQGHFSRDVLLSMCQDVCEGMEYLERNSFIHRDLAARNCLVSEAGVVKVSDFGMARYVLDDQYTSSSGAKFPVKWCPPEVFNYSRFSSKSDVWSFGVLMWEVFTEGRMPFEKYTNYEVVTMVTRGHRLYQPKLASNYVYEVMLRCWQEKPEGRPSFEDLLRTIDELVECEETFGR
Sequence of ABL1(E255K) (P00519 whole entry E255K): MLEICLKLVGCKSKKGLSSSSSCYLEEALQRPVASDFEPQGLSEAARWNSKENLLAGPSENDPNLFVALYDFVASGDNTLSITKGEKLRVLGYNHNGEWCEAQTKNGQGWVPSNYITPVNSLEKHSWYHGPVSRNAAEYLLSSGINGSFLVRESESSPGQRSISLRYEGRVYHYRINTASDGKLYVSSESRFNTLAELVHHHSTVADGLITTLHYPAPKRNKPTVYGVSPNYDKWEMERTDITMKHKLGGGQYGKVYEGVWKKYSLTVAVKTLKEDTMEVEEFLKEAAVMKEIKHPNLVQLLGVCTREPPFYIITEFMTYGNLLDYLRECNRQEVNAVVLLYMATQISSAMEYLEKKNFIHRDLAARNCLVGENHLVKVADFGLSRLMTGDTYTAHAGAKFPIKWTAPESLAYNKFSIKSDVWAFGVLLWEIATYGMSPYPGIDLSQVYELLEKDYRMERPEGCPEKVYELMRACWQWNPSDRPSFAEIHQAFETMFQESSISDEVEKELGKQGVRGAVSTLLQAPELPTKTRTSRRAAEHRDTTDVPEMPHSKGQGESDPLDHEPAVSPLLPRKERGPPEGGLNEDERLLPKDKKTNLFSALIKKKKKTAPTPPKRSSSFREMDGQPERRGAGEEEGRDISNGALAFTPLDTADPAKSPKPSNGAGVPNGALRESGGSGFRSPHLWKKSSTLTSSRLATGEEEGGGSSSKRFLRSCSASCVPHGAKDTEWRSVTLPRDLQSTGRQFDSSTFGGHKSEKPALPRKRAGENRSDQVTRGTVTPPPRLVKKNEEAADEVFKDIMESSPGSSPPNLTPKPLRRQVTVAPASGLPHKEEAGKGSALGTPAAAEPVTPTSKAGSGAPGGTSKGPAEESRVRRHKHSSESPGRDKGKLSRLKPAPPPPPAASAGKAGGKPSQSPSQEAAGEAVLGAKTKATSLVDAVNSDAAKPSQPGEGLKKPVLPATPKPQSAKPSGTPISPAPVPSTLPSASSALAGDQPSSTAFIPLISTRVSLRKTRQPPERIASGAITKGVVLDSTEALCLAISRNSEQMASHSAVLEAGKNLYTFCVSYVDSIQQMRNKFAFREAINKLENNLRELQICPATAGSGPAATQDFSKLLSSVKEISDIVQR
Sequence of LKB1 (Q15831 whole entry): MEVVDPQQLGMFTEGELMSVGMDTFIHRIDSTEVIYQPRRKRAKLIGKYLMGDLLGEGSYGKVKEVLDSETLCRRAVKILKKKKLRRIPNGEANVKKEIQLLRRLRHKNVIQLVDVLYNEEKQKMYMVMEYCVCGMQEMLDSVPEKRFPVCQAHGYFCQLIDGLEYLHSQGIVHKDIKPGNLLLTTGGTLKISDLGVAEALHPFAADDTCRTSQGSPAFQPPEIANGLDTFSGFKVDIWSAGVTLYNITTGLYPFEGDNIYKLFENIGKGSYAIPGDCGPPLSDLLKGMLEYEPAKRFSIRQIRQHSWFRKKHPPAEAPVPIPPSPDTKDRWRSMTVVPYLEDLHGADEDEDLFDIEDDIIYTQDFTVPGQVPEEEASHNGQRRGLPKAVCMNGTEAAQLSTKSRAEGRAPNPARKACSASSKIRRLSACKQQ
Sequence of MAK (P20794 whole entry): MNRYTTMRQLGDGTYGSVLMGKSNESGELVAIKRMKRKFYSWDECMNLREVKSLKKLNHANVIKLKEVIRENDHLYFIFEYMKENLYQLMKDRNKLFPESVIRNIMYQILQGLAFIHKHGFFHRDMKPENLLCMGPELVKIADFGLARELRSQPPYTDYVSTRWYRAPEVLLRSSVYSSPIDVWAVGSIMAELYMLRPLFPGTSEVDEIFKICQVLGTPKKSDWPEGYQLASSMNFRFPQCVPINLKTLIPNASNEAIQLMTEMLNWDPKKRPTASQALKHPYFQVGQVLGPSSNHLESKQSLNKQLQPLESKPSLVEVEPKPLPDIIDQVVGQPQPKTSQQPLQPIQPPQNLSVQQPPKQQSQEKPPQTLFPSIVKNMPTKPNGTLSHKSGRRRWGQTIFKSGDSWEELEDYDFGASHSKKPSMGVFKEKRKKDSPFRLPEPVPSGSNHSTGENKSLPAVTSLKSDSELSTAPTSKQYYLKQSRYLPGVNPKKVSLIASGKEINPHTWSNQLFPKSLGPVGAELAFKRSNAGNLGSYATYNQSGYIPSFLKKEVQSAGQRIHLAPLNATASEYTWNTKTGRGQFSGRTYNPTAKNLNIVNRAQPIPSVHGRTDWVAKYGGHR

`CNc1ncc2cc(-c3ccc(-c4cccc(C)n4)cc3Cl)c(=O)n(C[C@H]3OC[C@H](N)CO3)c2n1` [compound 6, G-5555] was tested, and the “Percent Control” value (ABL1(E255K)) was 100%, the “Percent Control” value (ASK2) was 100% and the “Percent Control” value (BLK) was 100%. The “Percent Control” value (BMPR2) was 100%, the “Percent Control” value (CAMK2A) was 79% and the “Percent Control” value (CAMK2G) was 100%. For the same compound, the “Percent Control” value (CDK3) was 100%, the “Percent Control” value (CDK8) was 100% and the “Percent Control” value (EPHA3) was 99%. The “Percent Control” value (EPHA8) was 100%, the “Percent Control” value (FGFR2) was 100% and the “Percent Control” value (FGFR3(G697C)) was 99%. For the same compound, the “Percent Control” value (HUNK) was 100%, the “Percent Control” value (IKK-alpha) was 92% and the “Percent Control” value (LKB1) was 100%. The “Percent Control” value (MAK) was 90%, the “Percent Control” value (MET) was 89% and the “Percent Control” value (MST4) was 0.5%. For the same compound, the “Percent Control” value (MYO3B) was 48%, the “Percent Control” value (NEK10) was 91% and the “Percent Control” value (PFTK1) was 100%. The “Percent Control” value (PKMYT1) was 100%, the “Percent Control” value (PLK3) was 86% and the “Percent Control” value (PLK4) was 84%. For the same compound, the “Percent Control” value (PRKCE) was 95%, the “Percent Control” value (PRKG2) was 86% and the “Percent Control” value (SgK110) was 56%. For the same compound, the “Percent Control” value (TEC) was 100%, the “Percent Control” value (TGFBR2) was 100% and the “Percent Control” value (TNIK) was 100%. For the same compound, the “Percent Control” value (ZAK) was 97%.
